Molecular target: T1, TRAP1 enzyme (Homo sapiens, UniProt Q12931)
T1 construct: 150 nM Trap1 enzyme was incubated with various concentrations of the test compound
T1 sequence (Q12931 60-704): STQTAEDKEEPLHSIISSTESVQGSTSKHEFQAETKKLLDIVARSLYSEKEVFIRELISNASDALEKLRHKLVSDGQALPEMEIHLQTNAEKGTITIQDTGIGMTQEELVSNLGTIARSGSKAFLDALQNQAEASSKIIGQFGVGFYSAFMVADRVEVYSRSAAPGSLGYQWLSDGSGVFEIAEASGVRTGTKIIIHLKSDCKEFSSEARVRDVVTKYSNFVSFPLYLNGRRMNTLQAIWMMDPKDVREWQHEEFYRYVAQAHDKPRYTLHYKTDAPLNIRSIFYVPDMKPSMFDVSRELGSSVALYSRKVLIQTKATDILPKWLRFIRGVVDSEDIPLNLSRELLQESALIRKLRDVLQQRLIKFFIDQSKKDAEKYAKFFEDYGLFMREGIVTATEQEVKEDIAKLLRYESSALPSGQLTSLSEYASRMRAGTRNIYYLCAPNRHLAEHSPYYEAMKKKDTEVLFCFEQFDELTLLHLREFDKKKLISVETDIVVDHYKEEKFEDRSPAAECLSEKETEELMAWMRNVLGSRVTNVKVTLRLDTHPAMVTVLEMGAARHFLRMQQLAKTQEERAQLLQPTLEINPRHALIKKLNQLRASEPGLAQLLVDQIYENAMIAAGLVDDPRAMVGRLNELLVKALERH
Assay: ADP Glo assay of TRAP1 ATPase activity
Type: biochemical
Conditions: for EC50: concentration for half maximal activation, read-out: ADP GLO DRC: GeoMean EC50; for Emax: maximal percent activation, read-out: ADP GLO DRC: Mean Emax
Outline: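 ADP-Glo luminescence quantifying ADP from 150 nM TRAP1 preincubated 30 min at 37° C with compound (0.79–100 μM), then 20 μM ATP for 60 min at 37° C. Buffer: 25 mM Pipes pH 7.5, 40 mM KCl, 0.05 mM MgCl2, EGTA, BSA, detergents. ADP from ATP/ADP standard curve; Emax and EC50 from sigmoidal fit.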

| SMILES | EC50 | Emax |
| --- | --- | --- |
| COc1ncc(NC(=O)c2cccc(-c3ccnn3C)c2)cc1S(=O)(=O)Nc1c(C)cccc1C [compound 1942, N-(5-(N-(2,6-dimethylphenyl)sulfamoyl)-6-methoxypyridin-3-yl)-3-(1-methyl-1H-pyrazol-5-yl)benzamide] | 10 to 20 µM | > 300% |
| COc1ncc(NC(=O)c2csc3c2C2CCN3CC2)cc1S(=O)(=O)Nc1ccc(Cl)cc1 [compound 1944, N-(5-(N-(4-chlorophenyl)sulfamoyl)-6-methoxypyridin-3-yl)-5,6-dihydro-4H-4,7-ethanothieno[2,3-b]pyridine-3-carboxamide] | 10 to 20 µM | 200 to 300% |
| COc1ncc(NC(=O)c2csc3c2C2CCN3CC2)cc1S(=O)(=O)Nc1c(C)cccc1C [compound 1946, N-(5-(N-(2,6-dimethylphenyl)sulfamoyl)-6-methoxypyridin-3-yl)-5,6-dihydro-4H-4,7-ethanothieno[2,3-b]pyridine-3-carboxamide] | < 10 µM | 160 to 199% |
| COc1ncc(NC(=O)c2csc3c2CN(C(=O)OC(C)(C)C)CC3)cc1S(=O)(=O)Nc1c(C)cccc1C [compound 1949, tert-butyl 3-((5-(N-(2,6-dimethylphenyl)sulfamoyl)-6-methoxypyridin-3-yl)carbamoyl)-6,7-dihydrothieno[3,2-c]pyridine-5(4H)-carboxylate] | < 10 µM | 200 to 300% |
| COc1ncc(NC(=O)c2coc(-c3ccccc3)n2)cc1S(=O)(=O)Nc1ccc(F)cc1C [compound 1950, N-(5-(N-(4-fluoro-2-methylphenyl)sulfamoyl)-6-methoxypyridin-3-yl)-2-phenyloxazole-4-carboxamide] | < 10 µM | 119 to 159% |
| COc1ncc(NC(=O)c2csc(-c3ccccc3)n2)cc1S(=O)(=O)Nc1c(C)cccc1O [compound 1953, N-(5-(N-(2-hydroxy-6-methylphenyl)sulfamoyl)-6-methoxypyridin-3-yl)-2-phenylthiazole-4-carboxamide] | 20 to 100 µM | 119 to 159% |
| COc1ncc(NC(=O)c2csc(-c3ccccc3)n2)cc1S(=O)(=O)Nc1sccc1C [compound 1954, N-(6-methoxy-5-(N-(3-methylthiophen-2-yl)sulfamoyl)pyridin-3-yl)-2-phenylthiazole-4-carboxamide] | 20 to 100 µM | 119 to 159% |
| COc1ncc(NC(=O)c2csc3c2CN(C)CC3)cc1S(=O)(=O)Nc1c(C)cccc1C [compound 1956, N-(5-(N-(2,6-dimethylphenyl)sulfamoyl)-6-methoxypyridin-3-yl)-5-methyl-4,5,6,7-tetrahydrothieno[3,2-c]pyridine-3-carboxamide] | 20 to 100 µM | 200 to 300% |
| COc1ncc(NC(=O)c2ncoc2C)cc1S(=O)(=O)Nc1ccc(Cl)cc1 [compound 1959, N-(5-(N-(4-chlorophenyl)sulfamoyl)-6-methoxypyridin-3-yl)-5-methyloxazole-4-carboxamide] | 10 to 20 µM | 160 to 199% |
| COc1ncc(NC(=O)c2coc(-c3ccccc3)n2)cc1S(=O)(=O)Nc1c(Cl)cccc1C(F)(F)F [compound 1962, N-(5-(N-(2-chloro-6-(trifluoromethyl)phenyl)sulfamoyl)-6-methoxypyridin-3-yl)-2-phenyloxazole-4-carboxamide] | 20 to 100 µM | 160 to 199% |
| COc1ncc(NC(=O)c2coc(-c3ccccc3)n2)cc1S(=O)(=O)Nc1c(C)cc(C#N)cc1C [compound 1965, N-(5-(N-(4-cyano-2,6-dimethylphenyl)sulfamoyl)-6-methoxypyridin-3-yl)-2-phenyloxazole-4-carboxamide] | < 10 µM | 119 to 159% |
| COc1ncc(NC(=O)c2coc(-c3ccccc3)n2)cc1S(=O)(=O)Nc1ncc(Cl)cc1C [compound 1966, N-(5-(N-(5-chloro-3-methylpyridin-2-yl)sulfamoyl)-6-methoxypyridin-3-yl)-2-phenyloxazole-4-carboxamide] | 20 to 100 µM | 160 to 199% |
| COc1ncc(NC(=O)c2csc(-c3ccccc3)n2)cc1S(=O)(=O)Nc1c(C(F)(F)F)cccc1C(F)(F)F [compound 1970, N-(5-(N-(2,6-bis(trifluoromethyl)phenyl)sulfamoyl)-6-methoxypyridin-3-yl)-2-phenylthiazole-4-carboxamide] | 10 to 20 µM | 200 to 300% |
| COc1ncc(NC(=O)c2csc3c2CNCC3)cc1S(=O)(=O)Nc1c(C)cccc1C [compound 1972, N-(5-(N-(2,6-dimethylphenyl)sulfamoyl)-6-methoxypyridin-3-yl)-4,5,6,7-tetrahydrothieno[3,2-c]pyridine-3-carboxamide] | 20 to 100 µM | 160 to 199% |
| COc1ncc(NC(=O)c2coc(-c3ccccc3)n2)cc1S(=O)(=O)Nc1ncc(Cl)cc1F [compound 1977, N-(5-(N-(5-chloro-3-fluoropyridin-2-yl)sulfamoyl)-6-methoxypyridin-3-yl)-2-phenyloxazole-4-carboxamide] | 20 to 100 µM | 200 to 300% |
| COc1ncc(NC(=O)c2csc(-c3ccccc3)n2)cc1S(=O)(=O)Nc1c(C)csc1C [compound 1985, N-(5-(N-(2,4-dimethylthiophen-3-yl)sulfamoyl)-6-methoxypyridin-3-yl)-2-phenylthiazole-4-carboxamide] | < 10 µM | 160 to 199% |
| COc1ncc(NC(=O)c2coc(-c3ccccc3)n2)cc1S(=O)(=O)Nc1c(C)cccc1C1CC1 [compound 1986, N-(5-(N-(2-cyclopropyl-6-methylphenyl)sulfamoyl)-6-methoxypyridin-3-yl)-2-phenyloxazole-4-carboxamide] | < 10 µM | 200 to 300% |
| COc1ccc(F)cc1C(=O)Nc1cnc(OC)c(S(=O)(=O)Nc2c(C)cccc2C)c1 [compound 1990, N-(5-(N-(2,6-dimethylphenyl)sulfamoyl)-6-methoxypyridin-3-yl)-5-fluoro-2-methoxybenzamide] | 10 to 20 µM | 200 to 300% |

| SMILES | EC50 | Emax |
| --- | --- | --- |
| COc1ncc(NC(=O)c2coc(-c3ccccc3)n2)cc1S(=O)(=O)Nc1ccc(F)c(F)c1C [compound 2000] | 10 to 20 µM | 200 to 300% |
| COc1ncc(NC(=O)c2coc(-c3ccccc3)n2)cc1S(=O)(=O)Nc1cc(F)c(F)cc1C [compound 2002] | 10 to 20 µM | 160 to 199% |
| COc1ncc(NC(=O)c2csc(-c3ccccc3)n2)cc1S(=O)(=O)Nc1ccccc1CO [compound 2004] | 10 to 20 µM | 160 to 199% |
| COc1ncc(NC(=O)c2csc(-c3ccccc3)n2)cc1S(=O)(=O)Nc1ccc(C(F)(F)F)cn1 [compound 2005] | 20 to 100 µM | 119 to 159% |
| COc1ncc(NC(=O)c2csc(-c3ccccc3)n2)cc1S(=O)(=O)Nc1c(C#N)cccc1C(F)(F)F [compound 2068] | 20 to 100 µM | 200 to 300% |
| COc1ncc(NC(=O)c2csc(-c3ccccc3)n2)cc1S(=O)(=O)Nc1ncc(C(F)(F)F)cn1 [compound 2069] | 20 to 100 µM | 200 to 300% |
| COc1ncc(NC(=O)c2coc(-c3ccccc3)n2)cc1S(=O)(=O)Nc1c(C)ccc(C#N)c1C [compound 2072] | < 10 µM | 160 to 199% |
| COc1ncc(NC(=O)c2csc(-c3ccccc3)n2)cc1S(=O)(=O)Nc1sc2c(c1C#N)CCCC2 [compound 2088] | 20 to 100 µM | 200 to 300% |
| COc1ncc(NC(=O)c2c[nH]c(-c3ccccc3)n2)cc1S(=O)(=O)Nc1c(C)cccc1C [compound 2092] | < 10 µM | 200 to 300% |
| COc1ncc(NC(=O)c2ncc(-c3ccccc3)o2)cc1S(=O)(=O)Nc1cccc(C(F)(F)F)n1 [compound 2119] | 20 to 100 µM | 200 to 300% |
| COc1ncc(NC(=O)c2csc(-c3ccccc3)n2)cc1S(=O)(=O)Nc1cccc(C#N)n1 [compound 2142] | 20 to 100 µM | 200 to 300% |
| COc1ncc(NC(=O)c2ncc(-c3ccccc3)o2)cc1S(=O)(=O)Nc1cccc(C#N)n1 [compound 2148] | 20 to 100 µM | 160 to 199% |
| COc1ncc(NC(=O)c2coc(-c3cc(F)c(F)c(F)c3)n2)cc1S(=O)(=O)Nc1cccc(C(F)(F)F)n1 [compound 2151] | 20 to 100 µM | 200 to 300% |
| COc1ncc(NC(=O)c2csc(-c3ccccc3)n2)cc1S(=O)(=O)Nc1cc(F)c(C)cc1C#N [compound 2155] | 10 to 20 µM | 200 to 300% |
| COc1ncc(NC(=O)c2coc(-c3ccccc3)n2)cc1S(=O)(=O)Nc1cc(C(F)(F)F)n[nH]1 [compound 2156] | 20 to 100 µM | 200 to 300% |
| COc1ncc(NC(=O)c2coc(-c3ccccc3)n2)cc1S(=O)(=O)Nc1cccc(C#N)n1 [compound 2157] | 20 to 100 µM | 160 to 199% |
| COc1ncc(NC(=O)c2ncc(-c3ccccc3)o2)cc1S(=O)(=O)Nc1cc(C(F)(F)F)n[nH]1 [compound 2361] | 20 to 100 µM | 119 to 159% |
| COc1ncc(NC(=O)c2csc(-c3ccccc3)n2)cc1S(=O)(=O)Nc1cc(C(F)(F)F)ncc1C [compound 2365] | 20 to 100 µM | 200 to 300% |
